Assay results published in patent publication US20110152094A1, “Herbicidal compositions comprising flufenacet” (Bayer CropScience AG, priority 2009, published 2011).

Assays:
[1] = test system: MATCH resistant (Matricaria chamomilla); assay: Greenhouse trial, PE application on resistant biotypes (test method 8); format: in vivo; conditions: resistant biotype, g of AS/ha: (A) 90, (B) 1200, (A)+(B) 90 + 1200, (C) 10
Description: (§1) In the standard design of the test, seeds of various broad-leaved weed and weed grass biotypes (origins) were sown in a 8-13 cm diameter pot filled with natural soil of a standard field soil (loamy silt; non-sterile) and covered with a covering soil layer of about 1 cm. The pots were then cultivated in a greenhouse (12-16 h of light, temperature day 20-22° C., night 15-18° C.) until the time of application. The pots were treated on a laboratory track sprayer with spray liquors comprising the compositions according to the invention, mixtures of the prior art or components used individually. Application of the active compounds or active compound combinations formulated as WG, WP, EC or otherwise was carried out at the appropriate growth stages of the plants. The application rate for the spray application was 100-600 l of water/ha. After the treatment, the plants were returned to the greenhouses.
(§2) About 3 weeks after the application, the soil action or/and foliar action was assessed visually according to a scale of 0-100% in comparison to an untreated comparative group: 0%=no noticeable effect compared to the untreated comparative group; 100%=full effect compared to the untreated comparative group.
(§3) (notes: the term “seeds” also includes vegetative propagation forms such as, for example, rhizome pieces; abbreviations used: h light=hours of illumination, g of AS/ha=gram of active substance per hectare, l/ha=liter per hectare, S=sensitive, R=resistant) • 1. Pre-emergence action against weeds: seeds of various broad-leaved weed and weed grass biotypes (origins) were sown in a 8-13 cm diameter pot filled with natural soil of a standard field soil (loamy silt; non-sterile) and covered with a covering soil layer of about 1 cm. The pots were then cultivated in a greenhouse (12-16 h of light, temperature day 20-22° C., night 15-18° C.) until the time of application. The pots were treated at the BBCH stage 00-10 of the seeds/plants on a laboratory track sprayer with spray liquors comprising the compositions according to the invention, mixtures or components used individually, as WG, WP, EC or other formulations. The application rate for the spray application was 100-600 l of water/ha. After the treatment, the plants were returned to the greenhouses and, when required, treated with fertilizer and watered. • 2. Post-emergence action against weeds: seeds of various broad-leaved weed and weed grass biotypes (origins) were sown in a 8-13 cm diameter pot filled with natural soil of a standard field soil (loamy silt; non-sterile) and covered with a covering soil layer of about 1 cm. The pots were then cultivated in a greenhouse (12-16 h of light, temperature day 20-22° C., night 15-18° C.) until the time of application. The pots were treated at various BBCH stages between 11-25 of the seeds/plants, i.e. generally between two to three weeks after the start of the cultivation, on a laboratory track sprayer with spray liquors comprising the compositions according to the invention, mixtures or components used individually, as WG, WP, EC or other formulations. The application rate for the spray application was 100-600 l of water/ha. After the treatment, the plants were returned to the greenhouses and, when required, treated with fertilizer and watered. • 3. Selective pre-emergence action: seeds of various crop species (origins) were sown in a 8-13 cm diameter pot filled with natural soil of a standard field soil (loamy silt; non-sterile) and covered with a covering soil layer of about 1 cm. The pots were then cultivated in a greenhouse (12-16 h of light, temperature day 20-22° C., night 15-18° C.) until the time of application. The pots were treated at the BBCH stage 00-10 of the seeds/plants on a laboratory track sprayer with spray liquors comprising the compositions according to the invention, mixtures or components used individually, as WG, WP, EC or other formulations. The application rate for the spray application was 100-600 l of water/ha. […]

[2] = test system: MATCH sensitive (Matricaria chamomilla); assay: as above; format: in vivo; conditions: sensitive biotype, g of AS/ha: (A) 90, (B) 1200, (A)+(B) 90 + 1200, (C) 10
Description: as §1, §2, §3

COc1nc(C)nc(NC(=O)NS(=O)(=O)c2cc(I)ccc2C(=O)O)n1 [(C) iodosulfuron, iodosulfuron]
activity MATCH resistant (visual assessment, scale 0-100% vs untreated) [1]: 60% | activity MATCH sensitive (visual assessment, scale 0-100% vs untreated) [2]: 100%
